Like-named read-outs stand apart in the source and are kept apart here. Peptide text beside a SMILES is read from it.
Settings: human, in vivo, iv
[1] = Cohort 4, 0.5 mg/kg IV infusion 2 hours, Median
[2] = Cohort 4, 0.5 mg/kg IV, infusion 2 hours, cohort Geometric Mean
[3] = Cohort 4, 0.5 mg/kg IV, infusion 2 hours, cohort Mean
[4] = Cohort 4, 0.5 mg/kg IV, infusion 2 hours, cohort Median
[5] = Cohort 5, 1 mg/kg IV infusion 4 hours, Geometric Mean
[6] = Cohort 5, 1 mg/kg IV infusion 4 hours, Mean
[7] = Cohort 5, 1 mg/kg IV infusion 4 hours, Median
[8] = Cohort 5, 1 mg/kg IV infusion 4 hours, individual subject
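Also: phase 1 study in human subjects given one IV dose of the peptide, enrolled in sequential ascending-dose cohorts and randomized to peptide or placebo.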

Experimental: Administration was a single 1-hour infusion.
Subjects were enrolled in sequential cohorts of peptide ascending dose levels and randomly assigned to receive a single IV administration of either peptide or placebo over 1 to 2 hours. […] In addition, the infusion volume was adjusted for Cohort 4 to maintain drug concentrations in line with Cohort 2
Blood samples for PK assessment were collected at pre-dose, at the midpoint of infusion, within 1 minute after the end-of-infusion and at 0.5, 1, 2, 4, 6, 8, 12, 20, 24, 36 and 48 hours after the end-of-infusion.
The pharmaceutical composition was stored at 2° C. to 8° C. for up to 14 days and then 15° C. to 25° C. for up to 48 hours for dosing.
Subjects were enrolled in sequential cohorts of peptide ascending dose levels and randomly assigned to receive a single IV administration of either peptide or placebo over 1 to 2 hours.

CC(C)[C@H](NC(=O)[C@H](Cc1c[nH]c2ccccc12)NC(=O)[C@H](CCCNC(=N)N)NC(=O)[C@H](CCCNC(=N)N)NC(=O)[C@@H](NC(=O)[C@@H](NC(=O)[C@H](CCCNC(=N)N)NC(=O)[C@@H](NC(=O)[C@@H](NC(=O)[C@H](CCCNC(=N)N)NC(=O)[C@H](CCCNC(=N)N)NC(=O)[C@H](Cc1c[nH]c2ccccc12)NC(=O)[C@@H](NC(=O)[C@H](CCCNC(=N)N)NC(=O)[C@H](CCCNC(=N)N)NC(=O)[C@@H](NC(=O)[C@H](CCCNC(=N)N)NC(=O)[C@H](CCCNC(=N)N)NC(=O)[C@@H](NC(=O)[C@H](Cc1c[nH]c2ccccc12)NC(=O)[C@H](CCCNC(=N)N)NC(=O)[C@@H](N)CCCNC(=N)N)C(C)C)C(C)C)C(C)C)C(C)C)C(C)C)C(C)C)C(C)C)C(=O)N[C@@H](CCCNC(=N)N)C(=O)N[C@@H](CCCNC(=N)N)C(N)=O [SEQ ID NO: 1] (H-RRWVRRVRRVWRRVVRVVRRWVRR-NH2)
Cmax [1]: 1970 ng/mL
Cmax [2]: 1770 ng/mL
Cmax [3]: 1830 ng/mL
Cmax [4]: 1970 ng/mL
Cmax [5]: 2580 ng/mL
Cmax [6]: 2650 ng/mL
Cmax [7]: 2510 ng/mL
Cmax [8]: 4000 ng/mL
Tmax (Cohort 1, 0.05 mg/kg IV infusion, Geometric Mean): 1 h
Tmax (Cohort 1, 0.05 mg/kg IV infusion, Mean): 1 h
Tmax (Cohort 1, 0.05 mg/kg IV infusion, Median): 1 h
Tmax (Cohort 1, 0.05 mg/kg IV infusion, cohort Geometric Mean): 1 h
Tmax (Cohort 1, 0.05 mg/kg IV infusion, cohort Mean): 1 h
Tmax (Cohort 1, 0.05 mg/kg IV infusion, cohort Median): 1 h
Tmax (Cohort 1, 0.05 mg/kg IV infusion, individual subject): 1 h
Tmax (Cohort 1, 0.05 mg/kg IV infusion, individual subjects): 1 h
Tmax (Cohort 2, […] IV infusion, Geometric Mean): 1 h
Tmax (Cohort 2, […] IV infusion, Mean): 1 h
Tmax (Cohort 2, […] IV infusion, Median): 1 h
Tmax (Cohort 2, […] IV infusion, cohort Geometric Mean): 1 h
Tmax (Cohort 2, […] IV infusion, cohort Mean): 1 h
Tmax (Cohort 2, […] IV infusion, cohort Median): 1 h
Tmax (Cohort 2, […] IV infusion, individual subject): 1 h
Tmax (Cohort 2, […] IV infusion, individual subjects): 1 h
Tmax (Cohort 3, […] IV infusion, Geometric Mean): 0.66 h
Tmax (Cohort 3, […] IV infusion, Mean): 0.71 h
Tmax (Cohort 3, […] IV infusion, Median): 0.5 h
Tmax (Cohort 3, […] IV infusion, cohort Geometric Mean): 0.66 h
Tmax (Cohort 3, […] IV infusion, cohort Mean): 0.71 h
Tmax (Cohort 3, […] IV infusion, cohort Median): 0.5 h
Tmax (Cohort 3, […] IV infusion, individual subject): 1 h
Tmax (Cohort 3, […] IV infusion, individual subjects): 1 h
Tmax (Cohort 3b, […] IV infusion 2 hours, Geometric Mean): 2 h
Tmax (Cohort 3b, […] IV infusion 2 hours, Mean): 2 h
Tmax (Cohort 3b, […] IV infusion 2 hours, Median): 2 h
Tmax (Cohort 3b, […] IV infusion 2 hours, individual subject): 2 h
Tmax (Cohort 3b, infusion 2 hours, cohort Geometric Mean): 2 h
Tmax (Cohort 3b, infusion 2 hours, cohort Mean): 2 h
Tmax (Cohort 3b, infusion 2 hours, cohort Median): 2 h
Tmax (Cohort 3b, infusion 2 hours, individual subjects): 2 h
Tmax (Cohort 4, 0.5 mg/kg IV infusion 2 hours, Geometric Mean): 2 h
Tmax (Cohort 4, 0.5 mg/kg IV infusion 2 hours, Mean): 2 h
Tmax [1]: 2 h
Tmax (Cohort 4, 0.5 mg/kg IV infusion 2 hours, individual subject): 2 h
Tmax [2]: 2 h
Tmax [3]: 2 h
Tmax [4]: 2 h
Tmax (Cohort 4, 0.5 mg/kg IV, infusion 2 hours, individual subjects): 2 h
Tmax [5]: 4 h
Tmax [6]: 4 h
Tmax [7]: 4 h
Tmax [8]: 4 h
half-life ([…], t1/2, […] IV 1-hr infusion): 10.5 h

From US20240115654A1, “INTRAVENOUS ADMINISTRATION OF ENGINEERED ANTIMICROBIAL AMPHIPHILIC PEPTIDES” (priority 2021, published 2024)
